SMILES strings stand for the structures.

Broadly, the melting point is the temperature, or range, at which the solid turns liquid. The compound `Cc1ccc(-n2nc(C(F)(F)F)cc2-c2ccc(S(C)(=O)=O)cc2)cc1F` yielded a melting point of 158 to 160 °C. Regarding `COc1cccc2c1C13CCN(C(=O)C4CC4)C(C2)C1(O)CCC(=O)C3` (centres undefined), the melting point lay within 223 to 225 °C. The compound `Cn1ncc2cc(/C=C/c3ccc(O)cc3)ccc2c1=O` came in with a melting point of 223 to 225 °C. The same measure for `CC#CCOc1ccc(OCC(=O)O)cc1`: 114 to 116 °C; for `CCCn1c(=O)c2[nH]c(C34CC5CC3CC(C4)C5=O)nc2n(CCC)c1=O`: 172 to 174 °C. As for `CNC(=O)C1CC(C)(C)Oc2ccc([N+](=O)[O-])cc21` (centres undefined), the melting point was in the range of 161 to 162 °C. With `COc1ccc(OCc2nc3nccnc3c(=O)[nH]2)cc1` the figure was 233 to 234 °C; with `O=c1c2ccc(Cl)cc2[nH]c2c(=O)n(-c3ccc(O)cc3)nc(O)c12`, 393 to 395 °C; with `CC(=O)CCC(=O)c1ccc(S(C)(=O)=O)cc1`, 132 to 133 °C. On to `CCCS(=O)(=O)c1ccc2c(c1)C(=O)C(Br)C2` (centres undefined), for which the melting point fell in the range of 87 to 89 °C.

The compound `Cc1ccc2c(c1)CC(=O)N2` showed a melting point of 168 °C. In turn, `Cc1c(SCCSCCn2c([N+](=O)[O-])cnc2C)ccnc1CNc1cnc2ccccc2c1` registered a melting point of 152 to 154 °C. The same measure for `COCCCOc1ccc(CCCO)c(Oc2ncc(C(F)(F)F)cc2Cl)c1`: 68.7 to 70.9 °C; for `Cc1cccc(NC(=O)NC2N=C(C3CCCCC3)c3cccc(C)c3N(CC(=O)N3CCCCCCC3)C2=O)c1` (centres undefined): 154 to 155 °C; for `O=C(c1cnoc1C1CC1)c1ncc(Cl)cc1Cl`: 74 to 75 °C. `CC1=C(C(=O)OCC(C)C)C(c2cccc([N+](=O)[O-])c2)c2c(N)nc(N)nc2N1` (centres undefined) registered a melting point of 130 °C.

For the compound `CCc1c(C(=O)OC)c(C(F)(F)F)nc(C(F)(F)F)c1C(=O)OC`, the melting point lay in the range of 45 to 47 °C.

`CN(C)C(=Cc1ccccc1[N+](=O)[O-])C(=O)CN1C(=O)c2ccccc2C1=O` returned a melting point of 230 to 233 °C.

`CCc1nc2c(cnn2CC)c(NC2CCOCC2)c1CNC(=O)c1cccc(C(=O)NCc2ccc(OC)c(-c3cccc(CN4CCNCC4)c3)c2)c1` gave a melting point of 138 to 140 °C.

In turn, `COc1cc(Nc2ncc(-c3ccccc3N(C)C(=O)CN3CCOCC3)o2)ccc1-c1cnco1` showed a melting point of 179 to 181 °C. Compound `CC(=O)Nc1nc(CCc2ccc(CCNC(=N)N)s2)cs1` showed a melting point of 122 to 123 °C.

As for `O=c1occ(CSc2ccc(F)cc2)o1`, the melting point fell in the range of 57 to 59 °C. In turn, `Cn1cc(S(C)(=O)=O)c(=O)c2ccc(Cl)cc21` had a melting point of 241 to 242 °C. `CCCNC(=O)NNC(=O)c1ccccc1` showed a melting point of 172 to 174 °C.

`CCc1cccc(CC)c1NC(=O)Nc1cnc(C)nc1-c1ccccc1Cl`: the melting point is 186 to 187 °C. `COC(=O)c1cnc(COC(=O)C(C)(C)Oc2ccc(Cl)cc2)s1` had a melting point of 80 °C.

`O=C(Cc1ccc2ccccc2c1)Nc1cc(-c2ccncc2)[nH]n1` displayed a melting point of 227 to 235 °C. With `Cc1nc2sccn2c(=O)c1C` the figure was 112 to 113 °C; with `CCOCc1nc2c(N)nc3ccccc3c2n1CCCC(=O)OCC`, 129 to 131 °C; with `COc1cccc2c1C[C@H]1C[C@@H](CN3CCC(NC(=O)C(c4ccccc4)c4ccccc4)CC3)CN(C)[C@@H]1C2`, 219 to 222 °C. The same measure for `CCOC(=O)C(CCC#N)(C(=O)OCC)c1ncc(C)cc1[N+](=O)[O-]`: 48 to 49 °C; for `Nc1cc(C(=O)c2ccccc2)ccc1Cl`: 91.9 °C; for `Cc1cc(NC2=NCCN2CCNC(=O)Nc2ccc(C(=O)O)cc2)nc(C)n1`: 160 °C.

The compound `CCCc1c(OCCOc2ccc(C(=O)O)cc2)ccc(C(C)=O)c1O` showed a melting point of 175 to 176 °C. With `CC12CCC3c4ccc(O)c([N+](=O)[O-])c4CCC3C1CCC2=O` (centres undefined), the melting point is > 250 °C. The same measure for `CN1CCC(CO)(OCc2ccccc2F)CC1`: 104 to 108 °C; for `COc1ccc(C(=O)N2CCc3cc(OCc4ccccc4)c(OC)cc3C2=O)cc1OC`: 200 to 201 °C.

As to `O=C(O)C1CC(=O)N(c2cc(C(F)(F)F)cc(C(F)(F)F)c2)C1` (centres undefined), the melting point was in the range of 108 to 109 °C. In the case of `COC(=O)c1[nH]c2c(C)ccc(C)c2c1Br`, the melting point was 173 to 174 °C. The same measure for `COc1cccc(C(=O)Nc2ccc3c(c2)CCCC3=O)c1`: 142 to 143 °C; for `CNC(=O)C(Cc1ccc(OC)cc1)NC(=O)C(CC(C)C)C(CC(=O)O)SC(C)=O` (centres undefined): 92 to 95 °C.

Take `CN(Cc1cc(C(C)(C)C)c(O)c(C(C)(C)C)c1)n1ccnc1`: the melting point worked out at 139 °C.

Compound `NC(=O)NCCCC(NC(=O)OCc1ccccc1)C(=O)OCc1ccc([N+](=O)[O-])cc1` (centres undefined) yielded a melting point of 144 to 146 °C. `O=Cc1cn(Cc2ccc(OCc3csc(-c4ccccc4)n3)cc2)nc1-c1cccs1`: the melting point was in the range of 115 to 116 °C. The same measure for `Cc1oc(-c2ccccc2)nc1COc1cccc(CCCC2OC(=O)NC2=O)c1` (centres undefined): 134 to 135 °C. With `Cc1c2n(c3ccccc13)C(=O)C(C(O)c1ncn(C(c3ccccc3)(c3ccccc3)c3ccccc3)c1C)CC2` (centres undefined) the figure was 153 to 169 °C. In the case of `O=c1[nH]nc(-c2ccc(-n3ccnc3)cc2)c2ncccc12`, the melting point lay in the range of 376 to 378 °C.

As for `N#CC(Cl)Cc1ccc(Cl)cc1C(=O)c1ccccc1F` (centres undefined), the melting point was 94 to 95 °C.

`CCCCc1ccc2nnc(C(=O)O)cc2c1` yielded a melting point of 131 to 133 °C. The same measure for `CCn1c(=O)ccn(-c2ccc([N+](=O)[O-])cc2)c1=O`: 182 °C; for `COC(=O)c1ccc(C(F)(F)F)cc1C#N`: 52 °C; for `c1ccc2c(CCCc3nccc4ccccc34)nccc2c1`: 96 to 97 °C. `CCOC(=O)c1c(C)[nH]c(CC)c1C` gave a melting point of 108 to 109 °C.

Regarding `O=C(N[C@@H]1CN[C@H]2CCO[C@H]21)C(F)(F)F` (relative stereo), the melting point was in the range of 106 to 110 °C. With `CCOC1CN(Cc2cc(OC)c(OC)c(OC)c2)Cc2cc(OC)c(O)cc21` (centres undefined) the figure was 94 to 96 °C. As for `O=c1oc(-c2ccc(-n3ccnc3)c(C(F)(F)F)c2)nn1Cc1cc(Cl)ccc1O`, the melting point was 178 to 180 °C. Compound `CCCCC[C@H]1CC[C@H](c2ccc(C#Cc3ccc(OC(F)F)cc3)cc2)CC1` had a melting point of 62 °C. The same measure for `COC(=O)c1c(O)c2cc(Cl)ccc2n1-c1ccccc1`: 170 to 173 °C; for `CS(=O)(=O)Nc1cc2occc(=O)c2cc1Oc1ccccc1C(=O)O`: 243 to 246 °C. On to `CCOC(=O)NNc1cc(C)c(-c2cccc([N+](=O)[O-])c2)nn1`, for which the melting point was 186 to 187 °C. The same measure for `CCC(C)(C)c1ccc(OCCCCNC(=O)c2[nH]c3ccc(OC)cc3c2N)c(C(C)(C)CC)c1`: 145 to 146 °C; for `O=C(CSc1ccncc1)Nc1cccc(-c2ccnc3c(C(=O)c4cccs4)cnn23)c1`: 138 to 144 °C. With `O=C(c1cc(C(F)(F)F)ccc1Cl)c1cc(C(F)(F)F)ccc1Cl` the figure was 70 to 72 °C; with `Cc1cc(OCC(=O)c2ccc(C(C)C)cc2)cc(C)c1C`, 96 to 98 °C; with `COc1ccc(C(=O)C2CCN(C(C)=O)CC2)c(OC)c1`, 132 to 134 °C. The same measure for `COc1ccc(CN(CCN(C)CCCNC(=O)NCCCOc2cccc(CN3CCCCC3)c2)c2ccccn2)cc1`: 120 °C; for `CCOC(=O)c1cc2cc(OCCCS(C)(=O)=O)cc([N+](=O)[O-])c2[nH]1`: 162 to 163 °C. Take `CCOC(=O)C1C=Nc2c(cc(F)cc2[N+](=O)[O-])C1=O` (centres undefined): the melting point was 278 to 280 °C.

`COc1c(Cl)ccc(-c2cc(N)c(Cl)c(C(=O)NOCc3ccccc3)n2)c1F` had a melting point of 166 to 169 °C. The same measure for `O=C(O)c1cc(Oc2ccc(Cl)cc2)c(Cl)cc1[N+](=O)[O-]`: 160 to 162 °C; for `CCc1cc(CC)c2oc(C(=O)O)cc(=O)c2c1O`: 218 to 220 °C; for `COc1cc2[nH]ccc2cc1Br`: 110 to 111 °C. With `Cc1nc(-c2ccc(Cl)cc2)oc1CO` the figure was 135 °C; with `CC(=O)OC1C(C)OC(n2cc(F)c(=O)[nH]c2=O)C1OC(C)=O` (centres undefined), 176 to 177 °C.

On to `COc1cc(Nc2c(C#N)cnc3cc(Br)ccc23)c(Cl)cc1C`, for which the melting point lay in the range of 215 to 217 °C.

Compound `O=C1c2ccccc2S(=O)(=O)N1C1CCN(CC2COc3ccccc3O2)CC1` (centres undefined) gave a melting point of 224 to 230 °C. The same measure for `CCOC(=O)CS(=O)(=O)Cl`: 74 to 77 °C.

`CC(C)NC(=S)N1CCc2[nH]cnc2C1C1CCCCC1` (centres undefined): the melting point was 218 °C. The same measure for `O=C(Oc1ccc(F)cc1)c1cccc(F)c1`: 63.5 to 66 °C. With `COC(=O)NNC(C)=S` the figure was 99 to 100 °C. With `COc1cc(C(OC)OC)cc([N+](=O)[O-])c1O` the figure was 58 to 59 °C; with `CCS(=O)c1ccc(-c2nc3n(c2-c2ccncc2)CCC3)cc1` (centres undefined), 108 to 110 °C.

The compound `O=C(Nc1nc(C(F)(F)F)co1)C1c2ccccc2Oc2ccccc21` showed a melting point of 222 °C. The same measure for `CCCCC(CC)C(=O)Nc1ccc2ccn(Cc3ccc(C(=O)O)cc3OC)c2c1` (centres undefined): 234 to 235 °C. Compound `CCOC(=O)c1cc(OCc2ccccc2)c2nc(C3CC3)n(C)c2c1` gave a melting point of 120 °C. `COc1ccc(C)cc1-c1ccc(S(=O)(=O)N2c3ccccc3CC2C(=O)NCc2ccc(C(=O)O)cc2)cc1` (centres undefined) returned a melting point of 153 to 165 °C. The same measure for `Cc1ccc(-c2ccnc3c(C(=O)c4cccs4)cnn23)cc1NC(=O)CC(C)C`: 185 to 187 °C; for `COc1cc(C=CC(=O)C=Cc2ccc(OC(C)=O)c(OC)c2)ccc1OC(C)=O`: 150 °C. `Cc1cc2cn[nH]c2c(C(=O)NC(C)C)c1NC(=O)c1cc(C(F)F)nn1-c1ncccc1Cl` registered a melting point of 250 to 253 °C.
